Experimental data from US10035810B2, “5,6-dihydro-4H-benzo[b]thieno-[2,3-d]azepine derivative” (PULMOCIDE LIMITED, priority 2014, dated 2018).

Columns and labels:
RSV B Washington strain = experiment: RSV B-induced CPE in HEp2 cells; type: cell-based; details: human respiratory syncytial virus
Description: Assessment of RSV Induced CPE in HEp2 Cells
HEp2 cells were seeded (10^3/well/50 μL) in 384-well plates (Catalogue number 353962, BD Falcon, Oxford, UK) in […] containing 2 mM L-glutamine and 1 mM sodium pyruvate one day before infection. RSV A2 strain (#0709161v, NCPV, Public Health England, Wiltshire) or RSV B Washington strain (VR-1580, ATCC, Manassas, Va. 20108) virus solutions were prepared in serum free-DMEM with 2 mM L-glutamine and 1 mM sodium pyruvate, and then added (50 μL/well) to achieve a final virus concentration of 1 MOI. Simultaneously Compound (I) (0.5 μL DMSO solution) was added to 100 μL of HEp2 cell culture with virus solution to provide a final DMSO solution of 0.5%. Plates were incubated (37° C./5% CO2) for 5 days for studies using RSV A2 strain or 6 days for those using RSV B strain, and then resazurin sodium salt (5 μL of 0.03% solution; Sigma-Aldrich, Dorset, UK) was added to each well and the plate incubated for a further 6 hr (37° C./5% CO2). The fluorescence of each well [545 nm (excitation)/590 nm (emission)] was determined using a multi-scanner (Clariostar: BMG, Buckinghamshire, UK). The percentage inhibition for each well was calculated and the IC50, IC75 and IC90 values were calculated from the concentration-response curve generated for Compound (I).

HEp2 cells = experiment: Cell viability: resazurin assay; type: cell-based, human; details: incubation with compound
Description: Cell Viability: Resazurin Assay
HEp2 cells were seeded in 384-well plates (10^3/well/50 μL; BD Falcon Ref 353962) in FBS DMEM (5%, containing 2 mM L-glutamine and 1 mM sodium pyruvate) one day before experimentation. Serum-free DMEM (50 μL) was added to test wells while for control wells the media was removed and sterile water (100 μL) was added. Compound (I) (0.5 μL DMSO solution) was added to give a final DMSO concentration of 0.5%. Hep2 cells were incubated with each test compound for 5 days (37° C./5% CO2 in 5% FBS) and then resazurin stock solution (5 μL; 0.03%) was added to each well and the plate incubated for a further 6 hr (37° C./5% CO2). The fluorescence of each well at 545 nm (excitation) and 590 nm (emission) was determined using a multi-scanner (Clariostar: BMG Labtech). The percentage loss of cell viability was calculated for each well relative to vehicle (0.5% DMSO) treatment.
Any apparent increase in cell viability associated with test compound treatment relative to vehicle is consequently tabulated as a negative percentage. Where appropriate, a CC50 value was calculated from the concentration-response curve generated for Compound (I).

RSV A2 = experiment: RSV infection in mice: virus titre in lung homogenate (plaque assay); type: in vivo, mice (male BALB/C); details: RSV A2 infected mice
Description: Non-fasted mice (male BALB/C, 20-30 g) were infected intranasally with RSV A2 or virus diluent (DMEM, 2% FBS, 12.5% sucrose) under isoflurane (5% in O2) anaesthesia. The A2 strain of RSV (50 uL of 1.3×10^6 PFU/mL: final 0.65×10^5 PFU/mouse) was instilled into each nostril in a drop wise fashion alternating between the two until a volume of 50 μL was delivered. Following infection each animal was weighed on a daily basis to monitor changes. Compound (I) was dissolved in 100% DMSO (at 20 mg/mL and/or 2 mg/mL), then diluted at 1:10 in isotonic saline to achieve 10% DMSO in all treatments. Formulations were then sonicated to produce a suspension. The suspension was administered intratracheally (20 μL) with a FMJ-250 PennCentury device or intranasally (40 μL) with a pipette on 1 day and 1 hr before infection (day 0), and then on days 1, 2 and 3 post infection. Four days after RSV challenge, the animals were euthanised (by intraperitoneal injection of a pentobarbitone overdose), the trachea cannulated and BALF extracted for total and differential cell counts. […]
Anti-RSV F-protein antibody [2F7] […] Plaques were counted by eye and confirmed using light microscopy, allowing the calculation of plaque forming units per mL of lung homogenate supernatant.

Which results are given for `Cc1cnc(N2CC3(CCOCC3)C2)c(C(=O)Nc2ccc(C(=O)N3CCc4cc(C(=O)Nc5c(C)cccc5F)sc4-c4ccccc43)cc2)c1` [Compound (I), N-(2-fluoro-6-methylphenyl)-6-(4-(5-methyl-2-(7-oxa-2-azaspiro[3.5]nonan-2-yl)nicotinamido)benzoyl)-5,6-dihydro-4H-benzo[b]thieno[2,3-d]azepine-2-carboxamide]?
IC50 (RSV B Washington strain; HEp-2, 144 h, 1 MOI, 6 days): 0.0102 µM; inhibition at 1 µg/mL (RSV B Washington strain; HEp-2, at 1 μg/mL): 72%; Effect on cell viability (in words) (HEp2 cells): No effect on cell viability; Virus titre in the lungs (in words) (RSV A2): completely inhibited virus titre; Viral titre in lung homogenates (in words) (RSV A2; intranasally or intratracheally): potent dose-dependent inhibition of viral titre
